Results on 2 compounds are retold here after PMC8693659 (RSC Advances, 2021).

This assay concerns the target SYK (Homo sapiens, UniProt P43405). Put plainly: In vitro kinase inhibition assay. Type of assay: biochemical. Conditions: for remained SYK activities: inhibitor at 5 μM.

`Cc1coc2c1C(=O)C(=O)c1c-2ccc2c1CCCC2(C)C` [TanIIA, tanshinoneIIA]: the IC50 (as a rule, the concentration needed to halve the response being measured) came out at 3200 nM and the “remained SYK activities” value turned out to be 44.7 ± 3.3%.

As for `Cc1coc2c1C(=O)C(=O)c1c-2ccc2c(C)cccc12` [TanI, tanshinone I], the IC50 stood at 1720 nM and the “remained SYK activities” value was 37.0 ± 2.3%.
